US7276522B2, “4-(substituted cycloalkylmethyl) imidazole-2-thiones, 4-(substituted cycloalkenylmethyl) imidazole-2-thiones, 4-(substituted cycloalkylmethyl) imidazol-2-ones, 4-(substituted cycloalkenylmethyl) imidazol-2-ones and related compounds” (Allergan, Inc., priority 2002, dated 2007)
pEC50: −log10 of the molar value.

Legend:
[1] = biological target: T1, alpha2A adrenergic receptor (Homo sapiens, UniProt P08913); assay: Receptor Selection and Amplification Technology (RSAT) assay, alpha2A; assay type: cell-based; conditions: NIH-3T3 cells, agonism, read-out: EC50, Alpha 2A
T1 sequence (P08913 1-465): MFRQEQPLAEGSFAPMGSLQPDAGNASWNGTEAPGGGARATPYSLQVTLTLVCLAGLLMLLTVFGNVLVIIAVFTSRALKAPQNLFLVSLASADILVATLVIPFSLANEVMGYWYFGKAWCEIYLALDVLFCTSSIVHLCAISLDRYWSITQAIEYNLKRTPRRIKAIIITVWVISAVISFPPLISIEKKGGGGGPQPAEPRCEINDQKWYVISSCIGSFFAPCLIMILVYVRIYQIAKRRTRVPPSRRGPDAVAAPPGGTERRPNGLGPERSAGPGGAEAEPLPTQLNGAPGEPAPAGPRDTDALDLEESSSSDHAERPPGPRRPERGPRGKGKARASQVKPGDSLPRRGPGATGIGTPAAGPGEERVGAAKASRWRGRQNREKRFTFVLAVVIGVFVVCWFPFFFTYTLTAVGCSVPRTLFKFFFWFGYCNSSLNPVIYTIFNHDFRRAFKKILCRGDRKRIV
Text: (§1) The imidazole-2-thione compounds of the invention are agonists of alpha2 adrenergic receptors, particularly they tend to be specific or selective agonists of alpha2B and/or to a lesser extent alpha2C adrenergic receptors, in preference over alpha2A adrenergic receptors. […] Al., 1995, Pharmacol. Toxicol. 76, pp. 308-311 (incorporated herein by reference) and is also described below. Another reference pertinent to this assay is Conklin et al. (1993) Nature 363:274-6, also incorporated herein by reference.
(§2) Receptor Selection and Amplification Technology (RSAT) Assay
(§3) The RSAT assay measures a receptor-mediated loss of contact inhibition that results in selective proliferation of receptor-containing cells in a mixed population of confluent cells. The increase in cell number is assessed with an appropriate transfected marker gene such as β-galactosidase, the activity of which can be easily measured in a 96-well format. […]
(§4) NIH-3T3 cells are plated at a density of 2×10^6 cells in 15 cm dishes and maintained in Dulbecco's modified Eagle's medium supplemented with 10% calf serum. […] After washing with phosphate-buffered saline, β-galactosidase enzyme activity is determined by adding 200 μl of the chromogenic substrate (consisting of 3.5 mM o-nitrophenyl-β-D-galactopyranoside and 0.5% nonidet P-40 in phosphate buffered saline), incubating overnight at 30° C. and measuring optical density at 420 nm. […]

[2] = system: rats with surgical ligation of L5 and L6 spinal nerves (tactile allodynia); assay: Chung model of neuropathic pain (tactile allodynia, von Frey hairs); assay type: in vivo, rat; conditions: 30 min after dosing
Text: Alleviation of Chronic Pain
A model in accordance with Kim and Chung 1992, Pain […], pp 355-363 (Chung model), for chronic pain (in particular peripheral neuropathy) involves the surgical ligation of the L5 (and optionally the L6) spinal nerves on one side in experimental animals. Rats recovering from the surgery gain weight and display a level of general activity similar to that of normal rats. However, these rats develop abnormalities of the foot, wherein the hindpaw is moderately everted and the toes are held together. More importantly, the hindpaw on the side affected by the surgery appears to become sensitive to pain from low-threshold mechanical stimuli, such as that producing a faint sensation of touch in a human, within about 1 week following surgery. This sensitivity to normally non-painful touch is called “tactile allodynia” and lasts for at least two months. The response includes lifting the affected hindpaw to escape from the stimulus, licking the paw and holding it in the air for many seconds. None of these responses is normally seen in the control group.
Rats are anesthetized before surgery. The surgical site is shaved and prepared either with betadine or Novacaine. Incision is made from the thoracic vertebra X111 down toward the sacrum. Muscle tissue is separated from the spinal vertebra (left side) at the L4-S2 levels. The L6 vertebra is located and the transverse process is carefully removed with a small rongeur to expose the L4-L6 spinal nerves. The L5 and L6 spinal nerves are isolated and tightly ligated with 6-0 silk thread. The same procedure is done on the right side as a control, except no ligation of the spinal nerves is performed.
A complete hemostasis is confirmed, then the wounds are sutured. A small amount of antibiotic ointment is applied to the incised area, and the rat is transferred to the recovery plastic cage under a regulated heat-temperature lamp. On the day of the experiment, at least seven days after the surgery, typically six rats per test group are administered the test drugs by intraperitoneal (i.p.) injection or oral gavage. For i.p. injection, the compounds are formulated in approximately 10 to 50% DMSO and given in a volume of 1 ml/kg body weight.
Tactile allodynia is measured prior to and 30 minutes after drug administration using von Frey hairs that are a series of fine hairs with incremental differences in stiffness. Rats are placed in a plastic cage with a wire mesh bottom and allowed to acclimate for approximately 30 minutes. The von Frey hairs are applied perpendicularly through the mesh to the mid-plantar region of the rats' hindpaw with sufficient force to cause slight buckling and held for 6-8 seconds. The applied force has been calculated to range from 0.41 to 15.1 grams. If the paw is sharply withdrawn, it is considered a positive response. A normal animal will not respond to stimuli in this range, but a surgically ligated paw will be withdrawn in response to a 1-2 gram hair. The 50% paw withdrawal threshold is determined using the method of Dixon, W. J., Ann. Rev. Pharmacol. Toxicol. 20:441-462 (1980). The post-drug threshold is compared to the pre-drug threshold and the percent reversal of tactile sensitivity is calculated based on a normal threshold of 15.1 grams. The results are expressed in percent (%) MPE, where the MPE value reflects the percentage reversal of pain threshold to that of a normal animal (100%). Table 3 below indicates results of this test with Compounds 1, 7 and 29 of the invention, administered i.p. and in oral doses.

[3] = biological target: T2, alpha2B adrenergic receptor (Homo sapiens, UniProt P18089); assay: Receptor Selection and Amplification Technology (RSAT) assay, alpha2B; assay type: cell-based; conditions: for pEC50: RSAT, NIH-3T3 cells, agonism, read-out: EC50, Alpha 2B; for Emax: fraction of maximal effect of standard agonist brimonidine, read-out: intrinsic activity, Alpha 2B
T2 construct: expressed in transfected cells; host or cells: NIH-3T3
T2 sequence (P18089 1-450): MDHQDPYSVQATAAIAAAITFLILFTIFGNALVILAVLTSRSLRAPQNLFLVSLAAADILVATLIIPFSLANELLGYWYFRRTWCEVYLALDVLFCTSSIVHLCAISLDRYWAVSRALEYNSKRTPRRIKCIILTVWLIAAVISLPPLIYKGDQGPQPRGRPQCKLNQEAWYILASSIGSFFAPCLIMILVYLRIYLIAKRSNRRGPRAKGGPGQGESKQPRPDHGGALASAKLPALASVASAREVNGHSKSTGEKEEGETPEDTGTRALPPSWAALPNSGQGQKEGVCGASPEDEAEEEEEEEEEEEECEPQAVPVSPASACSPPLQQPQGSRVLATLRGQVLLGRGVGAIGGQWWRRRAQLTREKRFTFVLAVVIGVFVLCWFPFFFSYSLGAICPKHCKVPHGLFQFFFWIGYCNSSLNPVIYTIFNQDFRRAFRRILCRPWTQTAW
Text: as §1, §2
The RSAT assay measures a receptor-mediated loss of contact inhibition that results in selective proliferation of receptor-containing cells in a mixed population of confluent cells. The increase in cell number is assessed with an appropriate transfected marker gene such as β-galactosidase, the activity of which can be easily measured in a 96-well format. Receptors that activate the G protein, Gq, elicit this response. Alpha2 receptors, which normally couple to Gi, activate the RSAT response when coexpressed with a hybrid Gq protein that has a Gi receptor recognition domain, called Gq/i5.
NIH-3T3 cells are plated at a density of 2×10^6 cells in 15 cm dishes and maintained in Dulbecco's modified Eagle's medium supplemented with 10% calf serum. One day later, cells are cotransfected by calcium phosphate precipitation with mammalian expression plasmids encoding p-SV-β-galactosidase (5-10 μg), receptor (1-2 μg) and G protein (1-2 μg). 40 μg salmon sperm DNA may also be included in the transfection mixture. Fresh media is added on the following day and 1-2 days later, cells are harvested and frozen in 50 assay aliquots. Cells are thawed and 100 μl added to 100 μl aliquots of various concentrations of drugs in triplicate in 96-well dishes. Incubations continue 72-96 hr at 37° C. After washing with phosphate-buffered saline, β-galactosidase enzyme activity is determined by adding 200 μl of the chromogenic substrate (consisting of 3.5 mM o-nitrophenyl-β-D-galactopyranoside and 0.5% nonidet P-40 in phosphate buffered saline), incubating overnight at 30° C. and measuring optical density at 420 nm. The absorbance is a measure of enzyme activity, which depends on cell number and reflects a receptor-mediated cell proliferation. The EC50 and maximal effect of each drug at each alpha2 receptor is determined. The efficacy or intrinsic activity is calculated as a ratio of the maximal effect of the drug to the maximal effect of a standard full agonist for each receptor subtype. Brimonidine, also called UK14304, the chemical structure of which is shown below, is used as the standard agonist for the alpha2A, alpha2B and alpha2C receptors. […]

[4] = biological target: T3, alpha2C adrenergic receptor (Homo sapiens, UniProt P18825); assay: Receptor Selection and Amplification Technology (RSAT) assay, alpha2C; assay type: cell-based; conditions: NIH-3T3 cells, agonism, read-out: EC50, Alpha 2C
T3 construct: expressed in transfected cells; host or cells: NIH-3T3
T3 sequence (P18825 1-462): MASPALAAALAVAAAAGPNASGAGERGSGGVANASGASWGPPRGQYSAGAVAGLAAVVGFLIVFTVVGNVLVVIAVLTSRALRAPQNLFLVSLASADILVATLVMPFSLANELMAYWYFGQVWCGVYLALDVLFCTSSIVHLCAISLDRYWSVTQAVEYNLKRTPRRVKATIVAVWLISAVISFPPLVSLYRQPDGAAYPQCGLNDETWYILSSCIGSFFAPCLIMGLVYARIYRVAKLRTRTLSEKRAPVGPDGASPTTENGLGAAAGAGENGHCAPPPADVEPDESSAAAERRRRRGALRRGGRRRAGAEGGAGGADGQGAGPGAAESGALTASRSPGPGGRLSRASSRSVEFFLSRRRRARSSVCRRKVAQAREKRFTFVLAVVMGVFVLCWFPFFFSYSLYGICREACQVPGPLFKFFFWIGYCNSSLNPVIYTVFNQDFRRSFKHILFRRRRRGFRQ
Text: as §1, §2, §3, §4

| SMILES | pEC50 [1] | % Pain Reversal ± SEM ([2]; 10 μg/kg i.p.) [%] | % Pain Reversal ± SEM ([2]; 30 μg/kg i.p.) [%] | % Pain Reversal ± SEM ([2]; 100 μg/kg i.p.) [%] | % Pain Reversal ± SEM ([2]; 100 μg/kg p.o.) [%] | % Pain Reversal ± SEM ([2]; 300 μg/kg i.p.) [%] | pEC50 [3] | Emax [3] [%] | pEC50 [4] | % Pain Reversal ± SEM ([2]; 30 μg/kg p.o.) [%] | % Pain Reversal ± SEM ([2]; 300 μg/kg p.o.) [%] |
| --- | --- | --- | --- | --- | --- | --- | --- | --- | --- | --- | --- |
| Cc1ccc2c(n1)CC(Cc1c[nH]c(=S)[nH]1)CC2 (racemic) [Compound 201, 4-(2-methyl-5,6,7,8-tetrahydro-quinolin-7-ylmethyl)-1,3-dihydro-imidazole-2-thione] | < 5.00 | 0.65 ± 0.91 | 42 ± 5.7 | 75.1 ± 5.7 | 64 ± 7 | 82.5 ± 7.4 | 6.95 | 104 | < 5.00 |  |  |
| Cc1ccc2c(n1)CC(Cc1c[nH]c(=S)[nH]1)CC2 (single isomer, unassigned) [Compound 202, 4-(2-methyl-5,6,7,8-tetrahydro-quinolin-7-ylmethyl)-1,3-dihydro-imidazole-2-thione] | < 5.00 |  |  |  | 49 ± 7.2 |  | 7.04 | 99 | < 5.00 | 28 ± 8.5 | 75 ± 8.1 |
